Data taken from article PMC6852045 (International Journal of Cosmetic Science, 2019).

Target: T1, peroxisome proliferator-activated receptor-α (PPARα) (Homo sapiens, UniProt Q07869)
T1 sequence (Q07869 196-468 limits assumed): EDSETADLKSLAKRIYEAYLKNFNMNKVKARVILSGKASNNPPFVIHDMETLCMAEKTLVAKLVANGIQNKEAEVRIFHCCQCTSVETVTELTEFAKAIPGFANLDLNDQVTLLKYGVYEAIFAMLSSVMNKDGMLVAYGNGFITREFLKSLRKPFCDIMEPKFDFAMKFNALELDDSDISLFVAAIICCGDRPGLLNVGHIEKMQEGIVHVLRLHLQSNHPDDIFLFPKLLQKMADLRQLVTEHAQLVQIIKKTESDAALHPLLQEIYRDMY
Assay: GAL4-PPARα LBD one-hybrid luciferase transactivation assay in HEK293 cells
Format: cell-based

- EC50: 5.43 µM
SMILES: CCCCCCCC[C@@H](O)CCCCCCCCC(=O)O [HSA, (R)‐10‐hydroxyoctadecanoic acid]
